Laboratory results: article PMC4184853, “Biohybrid Polymer-Antimicrobial Peptide Medium against Enterococcus faecalis” (PLoS ONE, 2014)
Read-outs that look alike come from different tables or passages of the source. Non-standard residues stand in square brackets, D forms with d. Residues, ends and D or L forms follow the SMILES beside them. *: point of attachment. Palmitoyl = CCCCCCCCCCCCCCCC(=O)*

Assays:
Type in all cases: cell-based, Enterococcus faecalis
E. faecalis (ATCC #v583) [1] = system: E. faecalis (ATCC #v583)
Experimental: (§1) E. faecalis (ATCC #v583), was cultured overnight in 5 ml brain-heart infusion (BHI) (Difco, Detroit, MI, USA) broth supplemented with 2 mg/ml vancomycin (Sigma-Aldrich), at 37°C under aerobic conditions. The top 4 ml were transferred to a fresh test tube and the optical density (OD) was determined according to the specific experiment.
(§2) The antibacterial activity of the peptides was examined using the microdilution assay. Briefly, the bacterial suspension (at OD 0.3) was diluted at a ratio of 1∶1000. Aliquots of 150 µl of bacterial suspension were added to 50 µl of peptide dilutions in phosphate buffered saline (PBS) (Sigma-Aldrich) (in triplicate for each concentration) in a 96-well plate (Nunc 96 microtiter plates, Roskilde, Denmark). The optical density (595 nm) in each well was recorded every 20 min using a microplate reader (VERSAmax tunable microplate reader, molecular devices, Sunnyvale, CA, USA) at 37°C for 18–24 hrs. The minimal inhibitory concentration (MIC) was determined as the concentration which inhibited visible growth after 18–24 hrs.

E. faecalis biofilms = assay: Antibiofilm activity, crystal violet biomass assay; settings: biofilm grown 72 hrs in saliva-coated 96 well plates in presence of test material
Experimental: (§3) Antibiofilm activity was tested on E. faecalis biofilms grown for 72 hrs. Biofilm was formed in microtiter plates (24 well plates for the ATP bioluminescence assay and 96 well plates for the crystal violet biomass assay and confocal laser spectroscopy). Saliva was collected from one donor and DL-Dithiolthreitol (DTT) (Thermo Scientific, Abu-Gosh, Israel) was added to 2.5 mM. The suspension was kept at 4°C for 10 min and then centrifuged for 15 min at 6,500×g. The supernatant was transferred to a fresh sterile tube and diluted to 25% with sterile double distilled water (DDW). The diluted saliva was disinfected using a 0.2 µm vacuum-driven filter (0.22 µm, […], Jet biofil, Belgium). […] Bacterial metabolism in the attached biofilm was assessed using ATP bioluminescence. Biofilm mass was measured using crystal violet as described below.
The total biofilm yield was assessed using crystal violet staining as follows. […] The acetic acid was transferred to wells of a new 96-well microtiter plate that was placed in a microplate reader and absorbance (OD595 nm) was measured.
Figure 3 Effect of the antimicrobial peptides on the development of E. faecalis biofilms. […] The biofilm was stained with 1% crystal violet measured at OD 595 nm (see Materials and Methods). […]

E. faecalis biofilm [2] = assay: Bacterial vitality in biofilm, live/dead staining with confocal microscopy; settings: 72 hrs contact during biofilm formation
Experimental: as §3
Confocal laser scanning microscopy (CLSM) was used to explore the vitality of bacteria in the different depth layers of the biofilm. […] To read the results directly, the wells were coated with emulsion oil to prevent dehydration. Fluorescence emission was detected using a Zeiss LSM 410 confocal laser scanning microscope (Carl Zeiss Microscopy, Jena, Germany). Red fluorescence was measured at 630 nm and green fluorescence at 520 nm; objective lenses: x60/oil, 1.4 numerical aperture. […]

E. faecalis biofilm [3] = assay: Antibiofilm activity, ATP bioluminescence; settings: biofilm exposed 72 hrs, 24 well plates; compared with untreated E. faecalis
Experimental: as §3
Bacterial killing was evaluated by measuring intracellular ATP levels, an energy parameter commonly used as an indicator of cell injury and viability. […] ATP levels were determined using an ATP bioluminescence assay kit (CLS 2, Roch Diagnostics, Mannheim, Germany). In a 96 microtiter plate designed for luminescence assay (Thermo Scientific, NUNC, 96-well optical Btm Plt white, Rochester, NY, USA) a 100 µl volume of the samples was added to 6 wells for each tested group. […]

E. faecalis (ATCC #v583) [4] = assay: Growth curves with soluble peptide: percent growth reduction and generation time; settings: concentrations below 5 µg/ml
Experimental: as §1
as §2, with “Aliquots of 150 µl of bacterial suspension were added to 50 µl of peptide dilutions in phosphate buffered saline (PBS) (Sigma-Aldrich) (in triplicate for each concentration) in a 96-well plate (Nunc 96 microtiter plates, Roskilde, Denmark).” left out
The presented data are the mean and standard deviation of triplicates of a representative experiment repeated three times. The growth mean, and multiple comparisons of growth inhibition by AMP (compared with the growth of untreated bacteria) were calculated from each growth curve using Student’s t-test. […]
Figure 1 E. faecalis growth is inhibited by C16-KGGK but not by hBD3. Growth of E. faecalis was measured (see Materials and Methods) in the presence of increasing concentrations of hBD3 (A) or of the lipopeptide KGGK (B). […]

Question: How did the MIC (E. faecalis (ATCC #v583) [1]; ATCC #v583) turn out when CCCCCCCCCCCCCCCC(=O)N[C@@H](CCCCN)C(=O)N[C@@H](CCCCN)C(=O)N[C@@H](CCCCN)C(N)=O [C16-KKK] was run?
Answer: 6 to 12.5 µg/mL

Question: What about the “anti-biofilm effect (biofilm mass, crystal violet, OD 595 nm)” value (E. faecalis biofilms) of the same molecule?
Answer: showed anti-biofilm activity

Question: For CCCCCCCCCCCCCCCC(=O)N[C@@H](CCCCN)C(=O)NCC(=O)NCC(=O)N[C@@H](CCCCN)C(N)=O [C16-KGGK] (Palmitoyl-KGGK-NH2), which MIC (E. faecalis (ATCC #v583) [1]; ATCC #v583) is on record?
Answer: 4 to 5 µg/mL

Question: And the “concentration causing complete growth inhibition” value (E. faecalis (ATCC #v583) [1]; planktonic E. faecalis, microdilution, 18–24 hrs)?
Answer: 5 µg/mL

Question: And the “vitality of biofilm bacteria (live/dead stain, CLSM)” value (E. faecalis biofilm [2])?
Answer: induced death in the biofilm bacteria

Question: And the “ATP levels in biofilm (luminescence)” value (E. faecalis biofilm [3])?
Answer: relatively low compared with that in the untreated control

Question: And the “growth of E. faecalis at sub-inhibitory concentrations” value (E. faecalis (ATCC #v583) [4])?
Answer: accelerated

Question: “GIINTLQKYYCRVRGGRCAVLSCLPKEEQIGKCSTRGRKCCRRKK [hBD3, Human recombinant β-defensin 3 obtained from PeproTech, reference compound]” was tested. Which MIC (E. faecalis (ATCC #v583) [1]; planktonic E. faecalis ATCC v583, BHI, 37°C, 18–24 hrs, OD 595 nm, triplicate per concentration) did it give?
Answer: > 20 µg/mL

Question: How did the MIC (E. faecalis (ATCC #v583) [1]; ATCC #v583) turn out when CCCCCCCCCCCCCCCC(=O)N[C@@H](CCCCN)C(=O)N[C@@H](CC(C)C)C(=O)N[C@@H](CC(C)C)C(=O)N[C@@H](CCCCN)C(N)=O [C16-KLLK] (Palmitoyl-KLLK-NH2) was run?
Answer: 6 to 12.5 µg/mL

Question: CC(C)C[C@H](NC(=O)[C@H](CC(C)C)NC(=O)[C@@H](CCCCN)NC(=O)[C@H](CC(C)C)NC(=O)[C@H](CC(C)C)NC(=O)[C@H](CCCCN)NC(=O)[C@@H](CCCCN)NC(=O)[C@@H](CC(C)C)NC(=O)[C@H](CC(C)C)NC(=O)[C@@H](CCCCN)NC(=O)[C@H](CCCCN)NC(=O)[C@H](CC(C)C)NC(=O)[C@@H](CC(C)C)NC(=O)[C@H](CCCCN)NC(=O)[C@@H](N)CC(C)C)C(N)=O [Amp-1D] (H-LK[dL]LK[dK]L[dL][dK]KLL[dK]LL-NH2; N-terminus assumed) was tested. Which MIC (E. faecalis (ATCC #v583) [1]; ATCC #v583) did it give?
Answer: >25 µg/mL

Question: How did the MIC (E. faecalis (ATCC #v583) [1]; ATCC #v583) turn out when CCCCCCCCCCCCCCCC(=O)N[C@@H](CCCCN)C(=O)N[C@@H](C)C(=O)N[C@@H](C)C(=O)N[C@@H](CCCCN)C(N)=O [C16-KAAK] (Palmitoyl-KAAK-NH2) was run?
Answer: 12.5 to 25 µg/mL
